Test results published in patent publication US7812022B2 (GlaxoSmithKline LLC, priority 2004, dated 2010).

Legend:
ErbB2 or EGFR = target: T1, ErbB2 or EGFR; assay: ErbB family substrate phosphorylation enzyme assay (HTRF), Method A or Method B; assay type: biochemical
T1 construct: enzymes purified from a baculovirus expression system; Reagent production was conducted essentially as described in Brignola, P. S., et al, (2002) J. Biol. Chem. 277(2): 1576-1585
Procedure, shortened: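 Baculovirus-expressed EGFR or ErbB2 (0.8 or 10 nM in enzyme mix) phosphorylates biotinylated Peptide C with 20 µM ATP and 0.8 µM peptide (substrate-mix levels), MnCl2, pH 7.5. Reaction ran 90 min at 20 °C with EDTA stop and HTRF anti-phosphotyrosine read. Method A: enzyme added last; Method B: 1 h enzyme–compound preincubation.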

[1] = test system: BT474 and HN5 tumor cell lines; assay: Methylene blue growth inhibition assay (cellular Method A); assay type: cell-based, Human; settings: Homo sapiens, BT-474, 72 h, 3 days, read-out: Activity (Method): growth inhibition IC50 class
Procedure, shortened: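 Growth inhibition measured by methylene blue staining of biomass (OD 620) after 3 days' compound exposure at 37° C, final DMSO 0.3%. Cell lines: BT474 (10,000/well), HN5 (3,000/well) and Colo205, all in DMEM with 10% FBS; IC50 fitted by nonlinear regression against vehicle-treated wells.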

Colo205 tumor cell lines = assay: Methylene blue growth inhibition assay (cellular Method A), Colo205; assay type: cell-based, Human; settings: Homo sapiens, COLO 205, 72 h, 3 days, read-out: Activity (Method): growth inhibition IC50 class
Procedure: Human breast (BT474) and head and neck (HN5) were cultured in low glucose DMEM (Life Technologies 12320-032) containing 10% fetal bovine serum (FBS). Human colon tumor cells (Colo205) were cultured in DMEM (Invitrogen, 10564) containing 10% FBS. The SV40 transformed human mammary epithelial cell line HB4a was transfected with either human H-ras cDNA (HB4a r4.2) or the human c-ErbB2 cDNA (HB4a c5.2). The HB4a clones were cultured in RPMI containing 10% FBS, insulin (5 g/mL), hydrocortisone (5 g/mL), supplemented with the selection agent hygromycin B (50 g/mL). All lines were grown in a humidified incubator at 37° C. in 95% air, 5% CO2. Cells were harvested using trypsin/EDTA, counted using a haemocytometer, and plated in 100 microliters of the appropriate media, at the following densities, in a 96-well tissue culture plate (Falcon 3075): BT474 10,000 cells/well, HN5 3,000 cells/well. The next day, compounds were diluted in DMEM containing […] gentamicin, at twice the final required concentration, from 10 mM stock solutions in DMSO. 100 microliters/well of these dilutions were added to the 100 microliters of media currently on the cell plates. Medium containing 0.6% DMSO was added to control wells. Compounds diluted in DMEM were added to all cell lines. The final concentration of DMSO in all wells was 0.3%. Cells were returned to the incubator (37° C., 10% CO2) for 3 days. Medium was then removed by aspiration. Cell biomass was estimated by staining cells with 90 microliters per well methylene blue (Sigma M9140, 0.5% in 1:1 ethanol:water), and incubation at rt for at least 30 minutes. Stain was removed, and the plates rinsed by immersion in deionized water and air-dried. To release stain from the cells 100 microliters of solubilization solution was added (1% N-lauroyl sarcosine, Sodium salt, Sigma L5125, in PBS), and plates were shaken gently for about 30 minutes. Optical density at 620 nm was measured on a microplate reader. Percent inhibition of cell growth was calculated relative to vehicle treated control wells. Concentration of compound that inhibits 50% of control cell growth (IC50) was interpolated using nonlinear regression (Levenberg-Marquardt) and the equation, y=Vmax*(1−(x/(K+x)))+Y2, where “K” was equal to the IC50. Method B: Celltiter Glo® Growth Inhibition Assays

[2] = Method A: substrate mix added first, reaction started with enzyme mix
[3] = Method B: enzyme mix pre-incubated with compound 1 hour at 20° C., started with substrate mix

Row | SMILES | Activity (Method): pIC50 class against ErbB2 or EGFR (ErbB2 or EGFR; [2]) | IC50 [1] | IC50 (Colo205 tumor cell lines) | Activity (Method): pIC50 class against ErbB2 or EGFR (ErbB2 or EGFR; [3])
1 | CC(c1cccc(Nc2nccc(-c3c(-c4cccc(NC(=O)c5c(F)cccc5F)c4)nn4ccccc34)n2)c1)S(C)(=O)=O (racemic) [Example 117, 2,6-Difluoro-N-(3-{3-[2-({3-[1-(methylsulfonyl)ethyl]-phenyl}amino)-4-pyrimidinyl]pyrazolo[1,5-a]pyridin-2-yl}phenyl)benzamide] | ++ (A) (at least one pIC50 measurement greater than 6 against either ErbB2 or EGFR but no measurement greater than pIC50 of 7) | < 0.1 µM | 0.1 to 1 µM | –
2 | O=C1COc2ccc(Nc3nccc(-c4c(-c5cccc(NC(=O)c6c(F)cccc6F)c5)nn5ccccc45)n3)cc2N1 [Example 197, 2,6-Difluoro-N-[3-(3-{2-[(3-oxo-3,4-dihydro-2H-1,4-benzoxazin-6-yl)amino]-4-pyrimidinyl}pyrazolo[1,5-a]pyridin-2-yl)phenyl]benzamide] | – | < 0.1 µM | 0.1 to 1 µM | +++ (B) (at least one pIC50 measurement of greater than 7 against either ErbB2 or EGFR)
3 | O=C(Nc1cccc(-c2nn3ccccc3c2-c2ccnc(Nc3ccc(OCCCS(=O)(=O)O)c(Cl)c3)n2)c1)c1c(F)cccc1F [Example 161, 3-{[2-Chloro-4-({4-[2-(3-{[(2,6-difluorophenyl)carbonyl]amino}-phenyl)pyrazolo[1,5-a]pyridin-3-yl]-2-pyrimidinyl}amino)phenyl]oxy}-1-propanesulfonic acid] | – | > 1 µM | > 1 µM | +++ (B) (at least one pIC50 measurement of greater than 7 against either ErbB2 or EGFR)
4 | O=C(Nc1cccc(-c2nn3ccccc3c2-c2ccnc(Nc3cccc(OCCN4CCCC4)c3)n2)c1)c1c(F)cccc1F [Example 136, 2,6-Difluoro-N-[3-(3-{2-[(3-{[2-(1-pyrrolidinyl)ethyl]oxy}phenyl)amino]-4-pyrimidinyl}pyrazolo[1,5-a]pyridin-2-yl)phenyl]benzamide] | – | < 0.1 µM | 0.1 to 1 µM | +++ (B) (at least one pIC50 measurement of greater than 7 against either ErbB2 or EGFR)
5 | Cc1ccc(F)c(C(=O)Nc2cccc(-c3nn4ccccc4c3-c3ccnc(Nc4cccc(OCCN(C)C)c4)n3)c2)c1F [Example 190, N-[3-(3-{2-[(3-{[2-(Dimethylamino)ethyl]oxy}phenyl)amino]-4-pyrimidinyl}pyrazolo[1,5-a]pyridin-2-yl)phenyl]-2,6-difluoro-3-methylbenzamide] | – | < 0.1 µM | 0.1 to 1 µM | +++ (B) (at least one pIC50 measurement of greater than 7 against either ErbB2 or EGFR)
6 | CN(C)Cc1ccc(Nc2nccc(-c3c(-c4cccc(NC(=O)c5c(F)cccc5F)c4)nn4ccccc34)n2)cc1 [Example 108, N-(3-{3-[2-({4-[(Dimethylamino)methyl]phenyl}-amino)-4-pyrimidinyl]pyrazolo[1,5-a]pyridin-2-yl}phenyl)-2,6-difluorobenzamide] | – | < 0.1 µM | < 0.1 µM | +++ (B) (at least one pIC50 measurement of greater than 7 against either ErbB2 or EGFR)
7 | COc1cc(Nc2nccc(-c3c(-c4cccc(NC(=O)c5c(F)cccc5F)c4)nn4ccccc34)n2)cc(OC)c1OC [Example 120, 2,6-Difluoro-N-{3-[3-(2-{[3,4,5-tris(methyloxy)-phenyl]amino}-4-pyrimidinyl)pyrazolo[1,5-a]pyridin-2-yl]phenyl}benzamide] | – | 0.1 to 1 µM | 0.1 to 1 µM | +++ (B) (at least one pIC50 measurement of greater than 7 against either ErbB2 or EGFR)
8 | O=C(Nc1cccc(-c2nn3ccccc3c2-c2ccnc(Nc3ccc(Cc4ccncc4)cc3)n2)c1)c1c(F)cccc1F [Example 94] | +++ (A) (at least one pIC50 measurement of greater than 7 against either ErbB2 or EGFR) | < 0.1 µM | > 1 µM | –
9 | O=C(Nc1cccc(-c2nn3ccccc3c2-c2ccnc(Nc3cccc(-c4cnco4)c3)n2)c1)c1cc(F)ccc1F [Example 44, 2,5-Difluoro-N-{3-[3-(2-{[3-(1,3-oxazol-5-yl)phenyl]amino}-4-pyrimidinyl)pyrazolo[1,5-a]pyridin-2-yl]phenyl}benzamide] | +++ (A) (at least one pIC50 measurement of greater than 7 against either ErbB2 or EGFR) | < 0.1 µM | 0.1 to 1 µM | –
10 | Cn1cncc1C(=O)Nc1cccc(-c2nn3ccccc3c2-c2ccnc(Nc3cccc(F)c3)n2)c1 [Example 84, N-[3-(3-{2-[(3-fluorophenyl)amino]-4-pyrimidinyl}-pyrazolo[1,5-a]pyridin-2-yl)phenyl]-1-methyl-1H-imidazole-5-carboxamide] | – | > 1 µM | > 1 µM | +++ (B) (at least one pIC50 measurement of greater than 7 against either ErbB2 or EGFR)
11 | COc1ccc(Nc2nccc(-c3c(-c4cccc(NC(=O)c5c(F)cccc5F)c4)nn4ccccc34)n2)cc1O [Example 166, 2,6-Difluoro-N-{3-[3-(2-{[3-hydroxy-4-(methyloxy)phenyl]amino}-4-pyrimidinyl)pyrazolo[1,5-a]pyridin-2-yl]phenyl}benzamide] | – | < 0.1 µM | > 1 µM | +++ (B) (at least one pIC50 measurement of greater than 7 against either ErbB2 or EGFR)
12 | C=CCN(C)CCOc1cccc(Nc2nccc(-c3c(-c4cccc(NC(=O)c5c(F)cccc5F)c4)nn4ccccc34)n2)c1 [Example 195, 2,6-Difluoro-N-{3-[3-(2-{[3-({2-[methyl(2-propen-1-yl)amino]ethyl}oxy)phenyl]amino}-4-pyrimidinyl)pyrazolo[1,5-a]pyridin-2-yl]phenyl}benzamide] | – | 0.1 to 1 µM | > 1 µM | +++ (B) (at least one pIC50 measurement of greater than 7 against either ErbB2 or EGFR)
13 | O=C(Nc1cccc(-c2nn3ccccc3c2-c2ccnc(Nc3ccc(OCCN4CCOCC4)c(Cl)c3)n2)c1)c1c(F)cccc1F [Example 127, N-[3-(3-{2-[(3-Chloro-4-{[2-(4-morpholinyl)ethyl]-oxy}phenyl)amino]-4-pyrimidinyl}pyrazolo[1,5-a]pyridin-2-yl)phenyl]-2,6-difluorobenzamide] | – | < 0.1 µM | 0.1 to 1 µM | +++ (B) (at least one pIC50 measurement of greater than 7 against either ErbB2 or EGFR)
14 | CCN(CC)CCCOc1ccc(Nc2nccc(-c3c(-c4cccc(NC(=O)c5c(F)cccc5F)c4)nn4ccccc34)n2)cc1F [Example 131, N-[3-(3-{2-[(4-{[3-(Diethylamino)propyl]oxy}-3-fluorophenyl)amino]-4-pyrimidinyl}pyrazolo[1,5-a]pyridin-2-yl)phenyl]-2,6-difluorobenzamide] | – | < 0.1 µM | 0.1 to 1 µM | +++ (B) (at least one pIC50 measurement of greater than 7 against either ErbB2 or EGFR)
15 | O=C(Nc1cccc(-c2nn3ccccc3c2-c2ccnc(Nc3cccc(F)c3)n2)c1)c1cccs1 [Example 25, N-[3-(3-{2-[(3-fluorophenyl)amino]-4-pyrimidinyl}pyrazolo[1,5-a]pyridin-2-yl)phenyl]-2-thiophenecarboxamide] | – | 0.1 to 1 µM | > 1 µM | +++ (B) (at least one pIC50 measurement of greater than 7 against either ErbB2 or EGFR)
